A word on the Ki: it is a dissociation constant, usually derived from enzyme kinetics or from competition with a known ligand. As a reminder, the melting point is the temperature of the solid-liquid transition.

Series [1] has as its target FXIa. Conditions: representative FXIa inhibitors, Figure 1; cited from earlier work.
The test system of series [2] is rabbit plasma. The series is described as follows: aPTT in vitro coagulation assay. Type of series: biochemical. The following applies: incubated 3 min at 37 °C. As to the method:
A commercially available automatic Coagulation analyzer (Steellex Science Instrument Co., Ltd., Beijing, China) was employed to measure aPTT. The clotting times were also measured using the instrument itself, in accordance with the manufacturer’s instructions. Increasing concentrations of inhibitor or solvent were added to rabbit (Beijing Longan Experimental Animal Breeding Center, SCXK(Jing)2016-0006, Beijing, China) plasma and incubated for 3 min at 37 °C. APTT was determined by automatic Coagulation analyzer.

For series [3], the target named is T1, human FXIa (Homo sapiens, UniProt P03951).
T1 construct: purchased Haematologic Technologies, Essex Junction, VT, USA
T1 sequence (P03951 388-625 limits assumed): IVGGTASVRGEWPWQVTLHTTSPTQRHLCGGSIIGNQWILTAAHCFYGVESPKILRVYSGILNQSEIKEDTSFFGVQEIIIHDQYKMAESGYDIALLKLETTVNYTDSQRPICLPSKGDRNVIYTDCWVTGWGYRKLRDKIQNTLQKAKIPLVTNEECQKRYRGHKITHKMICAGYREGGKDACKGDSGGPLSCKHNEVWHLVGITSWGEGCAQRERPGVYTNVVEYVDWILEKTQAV
T1 sequence (P03951 19-387 partner limits assumed): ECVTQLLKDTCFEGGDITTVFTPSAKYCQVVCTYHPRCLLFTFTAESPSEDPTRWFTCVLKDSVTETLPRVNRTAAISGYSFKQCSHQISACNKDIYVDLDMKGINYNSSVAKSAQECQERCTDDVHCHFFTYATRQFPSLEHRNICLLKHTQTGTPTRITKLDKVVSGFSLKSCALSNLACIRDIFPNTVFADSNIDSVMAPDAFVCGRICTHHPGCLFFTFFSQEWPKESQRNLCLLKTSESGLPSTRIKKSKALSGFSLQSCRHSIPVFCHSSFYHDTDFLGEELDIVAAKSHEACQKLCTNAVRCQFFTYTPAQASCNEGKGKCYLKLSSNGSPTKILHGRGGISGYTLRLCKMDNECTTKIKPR
The series is described as follows: Inhibition of FXIa in vitro (chromogenic substrate assay). The format is biochemical. As to the method:
The negative controlwas composed of the same mixed solutions except replacing test compound with DMSO. […] The IC50 was calculated by IBM SPSS Statistics 22.0 (IBM Inc., North Castle, NY, USA) and the Probit function in it. IC50 values were converted to Ki values by the followingrelationship:Ki = IC50/(1 + [S]/Km)

Where [4] appears, read: human FXIa, chromogenic substrate BIOPHEN CS-21(66), 37 °C, pH 7.4, Ki = IC50/(1 + [S]/Km), read-out: Ki.

The structures appear in SMILES notation. Where two headings read alike, the source gives them in different places. Bounds are passed on as bounds.

Consider `COC1CCN(c2cccc3c2CCN(C(=O)c2cc(-c4cccc(Cl)c4)[nH]n2)[C@@H]3C(=O)Nc2ccc(C(=O)O)cc2)CC1` [Compound 2], for which, in series [1], the Ki was 18.4 nM.
As for `NC[C@H]1CC[C@H](C(=O)NC(Cc2ccccc2)c2ncc(-c3ccc4c(N)n[nH]c4c3)[nH]2)CC1` (some centres unmarked) [Compound 4, reference compound], the “1.5× aPTT (μM) (Rabbit)” value in series [2] turned out to be 3.79 µM. The Ki in series [3] (Table 1 values, read-out: FXIa inhibitory potency (Ki)) is 23.5 nM; in series [3] (setting [4]), 23.5 nM.
In the case of `CC1CC1C(=O)Nc1ccc(C[C@H](NC(=O)c2cc(-c3cccc(Cl)c3F)[nH]n2)C(=O)Nc2ccc3[nH]c(C(=O)O)cc3c2)cc1` (stereo partly drawn) [Compound 7za, 5-((2S)-2-(5-(3-Chloro-2-fluorophenyl)-1H-pyrazole-3-carboxamido)-3-(4-(2-methylcyclopropane-carboxamido)phenyl)propanamido)-1H-indole-2-carboxylic acid], in series [2], the “1.5× aPTT (μM) (Rabbit)” value was found to be 43.33 µM.
For `O=C(O)c1ccc(NC(=O)[C@H](Cc2ccccc2)NC(=O)c2cc(-c3cccc(Cl)c3F)[nH]n2)cc1` [Compound 7f, (S)-4-(2-(5-(3-Chloro-2-fluorophenyl)-1H-pyrazole-3-carboxamido)-3-phenylpropanamido)benzoic acid], the melting point is 185 to 187 °C (dec.). Further, the Ki in series [3] (setting [4]) worked out at 29300 nM.
On the same counts, the results for `O=C(O)c1ccc(NC(=O)[C@H](Cc2ccccc2)NC(=O)c2cc(-c3ccc(Cl)cc3F)[nH]n2)cc1` [Compound 7g, (S)-4-(2-(5-(4-Chloro-2-fluorophenyl)-1H-pyrazole-3-carboxamido)-3-phenylpropanamido)benzoic acid] are 143 to 145 °C (dec.) and above 84500 nM.
On the same counts, the results for `O=C(O)c1ccc(NC(=O)[C@H](Cc2ccccc2)NC(=O)c2cc(-c3c(F)ccc(Cl)c3F)[nH]n2)cc1` [Compound 7k, (S)-4-(2-(5-(3-Chloro-2,6-difluorophenyl)-1H-pyrazole-3-carboxamido)-3-phenylpropanamido)benzoicacid] are 129 to 131 °C (dec.) and 28900 nM.
